Assay results from publication PMC11314621, “Cheminformatics-Guided Exploration of Synthetic Marine Natural Product-Inspired Brominated Indole-3-Glyoxylamides and Their Potentials for Drug Discovery” (Molecules, 2024).
Where two headings read alike, the source gives them in different places.

Key:
SARS-CoV-2 3CLpro = target: T1, SARS-CoV-2 3CLpro (Severe acute respiratory syndrome coronavirus 2, UniProt P0DTD1); assay: biochemical
T1 construct: Each well contained 25 nM of SARS-CoV-2 3CL^Pro and eCFP-Venus biosensor (500 nM)

[1] = target: T2, porcine pancreatic elastase (Sus scrofa, UniProt P00772); assay: Serine protease assay, elastase; type: biochemical; settings: remaining enzyme activity
T2 construct: high-purity porcine pancreatic elastase (Sigma, Melbourne, Victoria, Australia, E0258); purchased Sigma E0258
Procedure: (§1) Serine protease-inhibitory activities for 25–56 were determined in 96 well plates. Each inhibitor was initially tested in duplicate against elastase and chymotrypsin at 10 µM. […] Assays for the inhibition of elastase were undertaken using high-purity porcine pancreatic elastase (Sigma, Melbourne, Victoria, Australia, E0258) in an assay buffer of 50 mM Tris-HCl (pH 8.0) at room temperature. Dilutions of each inhibitor (originally resuspended in DMSO) were prepared in triplicate and then preincubated with 375 ng of elastase for 15 min at room temperature in a total reaction volume of 85 µL. Following this preincubation, 15 µL of 2 mM N-succinyl-Ala-Ala-Ala-p-nitroanilide (Sigma, S4760) in assay buffer was added to each well and kinetic measurement of absorbance at 405 nm (Tecan Spark Plate Reader, Zürich, Switzerland) was undertaken for 30 min. […] Dilutions of each inhibitor were prepared in triplicate and preincubated with 5 µg of chymotrypsin for 10 min at 37 °C in a total reaction volume of 75 µL. After preincubation, 25 µL of 2 mM N-succinyl-Gly-Gly-Phe-p-nitroanilide (Sigma, S1899) was added to each well and kinetic measurement of absorbance at 405 nm was undertaken for 30 min. Inhibitory activity was determined by comparison of the slope of the reaction curve for multiple dilutions of the inhibitor to that of an equivalent solvent control and expressed as IC50 ± standard deviation.

[2] = target: T3, α-chymotrypsin from bovine pancreas (Bos taurus, UniProt P00766); assay: Serine protease assay, chymotrypsin; type: biochemical; settings: 10 µM; remaining enzyme activity
T3 construct: α-chymotrypsin from bovine pancreas (Sigma, C4129); purchased Sigma C4129; host or cells: bovine pancreas
Procedure: as §1

P. falciparum 3D7 = assay: Antiplasmodial image-based assay, 3D7 strain; type: cell-based, Plasmodium falciparum; settings: chloroquine-sensitive P. falciparum strain 3D7; for IC50 / inhibition: Plasmodium falciparum; for IC50: control compounds; for inhibition: 3D7, 72 h; for inhibition / % Inhibition @ 60 µM, 3D7: 60 µM, 72 h
Procedure: (§2) An anti-plasmodial imaging assay reported by Duffy and Avery was used to examine the antiplasmodial activities of synthetic indoles 25, 26, 36, 37, 38, 40, 41, 43, 45, 46, 47, 48, 50 and 51. All compounds were diluted to […] in DMSO and tested at three increasing concentrations from 0.4 nM–40 μM per log dose in a 16-point CRC ([…]) parasite strains of Plasmodium falciparum. […] Normalised percent inhibition data was obtained using in-plate positive (4 μM DHA) and negative (0.4% DMSO) controls, which were then used to calculate IC50 values. Compounds were incubated in CellCarrier-384 well imaging plates in the presence of 2% parasitemia (3D7 or Dd2) at 0.3% hematocrit in a total assay volume of 50 μL for 72 h at 37 °C, 5% O2, 5% CO2 and 90% N2. After incubation, plates were stained with 4′,6-diamidino-2-phenylindole (DAPI) and imaged using an Opera Phenix high-content imaging system (Revvity, Mulgrave, Victoria, Australia). Images were analysed using Harmony (Revvity) software (version 3), while percent parasite inhibition was calculated using the minimum (0.4% DMSO) and (DHA). IC50 values were determined by plotting % inhibition against log dose and analysed using nonlinear regression and sigmoidal dose-response using GraphPad Prism version 6.

P. falciparum Dd2 = assay: Antiplasmodial image-based assay, Dd2 strain; type: cell-based, Plasmodium falciparum; settings: chloroquine-resistant P. falciparum strain Dd2; for IC50: Plasmodium falciparum, control compounds; for % Inhibition @ 60 µM, Dd2: 72 h
Procedure: as §2

HEK293 cells = assay: HEK293 cell cytotoxicity; type: cell-based; settings: human embryonic kidney cell line

T2 sequence (P00772 27-266): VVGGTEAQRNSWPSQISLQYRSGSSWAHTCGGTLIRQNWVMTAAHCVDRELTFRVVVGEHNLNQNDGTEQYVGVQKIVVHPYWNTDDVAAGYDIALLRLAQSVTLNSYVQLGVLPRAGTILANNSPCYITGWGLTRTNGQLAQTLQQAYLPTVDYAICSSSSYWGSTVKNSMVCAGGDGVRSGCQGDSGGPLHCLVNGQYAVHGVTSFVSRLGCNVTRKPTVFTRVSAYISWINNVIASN

Compound	% inhibition @ 20 µM, No DTT (SARS-CoV-2 3CLpro; 20 µM, no DTT)	% inhibition @ 20 µM, DTT (SARS-CoV-2 3CLpro; 20 µM, with DTT (4 mM))	% enzyme activity @ 10 µM, elastase [1]	% enzyme activity @ 10 µM, chymotrypsin [2]	also measured
N=C(N)NCCC[C@H](NC(=O)C(=O)c1c[nH]c2ccc(Br)cc12)C(=O)O [Compound 29, 5-bromoindolyl-3-glyoxyl-L-arginine]	13.8%	2.4%	100.8%	88.8%	–
CC(C)[C@H](NC(=O)C(=O)c1c[nH]c2cc(Br)ccc12)C(=O)O [Compound 55, 6-bromoindolyl-3-glyoxyl-L-valine]	6.8%	3.0%	88.9%	105.0%	–
CC(C)[C@@H](NC(=O)C(=O)c1c[nH]c2cc(Br)ccc12)C(=O)O [Compound 56, 6-bromoindolyl-3-glyoxyl-D-valine]	6.8%	2.7%	104.4%	94.0%	–
CCN(CC)CCCC(C)Nc1ccnc2cc(Cl)ccc12 (stereo not shown) [Chloroquine, reference compound]	–	–	–	–	IC50 (P. falciparum 3D7): 0.0778 µM; IC50 (P. falciparum Dd2): 0.696 µM
COc1ccc(C[C@H](N)C(=O)N[C@H]2[C@@H](O)[C@H](n3cnc4c(N(C)C)ncnc43)O[C@@H]2CO)cc1 [Puromycin, reference compound]	–	–	–	–	IC50 (P. falciparum 3D7): 0.0792 µM; IC50 (P. falciparum Dd2): 0.0865 µM; IC50 (HEK293 cells; HEK293): 0.673 µM
C[C@H]1[C@@H](O)O[C@@H]2O[C@@]3(C)CC[C@H]4[C@H](C)CC[C@@H]1[C@@]24OO3 [Dihydroartemisinin, reference compound]	–	–	–	–	inhibition (P. falciparum 3D7): 100%; IC50 (P. falciparum 3D7): 0.0013 µM; IC50 (P. falciparum Dd2): 0.0017 µM
O=c1c2ccccc2[se]n1-c1ccccc1 [Ebselen, reference compound]	–	–	–	–	inhibition at 20 µM (SARS-CoV-2 3CLpro; read-out: % inhibition @ 20 µM, DTT): 0.2%; inhibition at 20 µM (SARS-CoV-2 3CLpro; read-out: % inhibition @ 20 µM, No DTT): 114%
O=C(N[C@@H](CSSC[C@H](NC(=O)C(=O)c1c[nH]c2ccc(Br)cc12)C(=O)O)C(=O)O)C(=O)c1c[nH]c2ccc(Br)cc12 [Compound 33, 5-bromoindolyl-3-glyoxyl-L-cystine]	–	–	–	–	inhibition at 20 µM (SARS-CoV-2 3CLpro; 20 µM, no DTT, read-out: % inhibition @ 20 µM, No DTT): 64.1%; inhibition at 20 µM (SARS-CoV-2 3CLpro; 20 µM, with DTT (4 mM), read-out: % inhibition @ 20 µM, DTT): 2%; IC50 (SARS-CoV-2 3CLpro; no DTT): 12.5 µM; remaining activity at 10 µM [1]: 107%; remaining activity at 10 µM [2]: 94.7%
C[C@@H](NC(=O)C(=O)c1c[nH]c2cc(Br)ccc12)C(=O)O [Compound 28, 6-bromoindolyl-3-glyoxyl-D-alanine]	1.7%	0.8%	107.4%	92.1%	–
O=C(N[C@H](Cc1c[nH]c2ccccc12)C(=O)O)C(=O)c1c[nH]c2cc(Br)ccc12 [Compound 48, 6-bromoindolyl-3-glyoxyl-D-tryptophan]	20.8%	2.0%	91.1%	83.6%	% Inhibition @ 60 µM, 3D7 (P. falciparum 3D7): 99.0%; % Inhibition @ 60 µM, Dd2 (P. falciparum Dd2): 97.5%; % Inhibition @ 60 µM, HEK293 (HEK293 cells): 16.0%
CCc1nc(N)nc(N)c1-c1ccc(Cl)cc1 [Pyrimethamine, reference compound]	–	–	–	–	inhibition (P. falciparum 3D7): -10%; IC50 (P. falciparum 3D7): 0.0141 µM
N=C(N)NCCC[C@@H](NC(=O)C(=O)c1c[nH]c2cc(Br)ccc12)C(=O)O [Compound 32, 6-bromoindolyl-3-glyoxyl-D-arginine]	3.0%	0.8%	102.3%	99.2%	–
O=C(N[C@@H](CO)C(=O)O)C(=O)c1c[nH]c2cc(Br)ccc12 [Compound 44, 6-bromoindolyl-3-glyoxyl-L-serine]	7.3%	2.9%	99.0%	97.1%	–
C[C@H](NC(=O)C(=O)c1c[nH]c2cc(Br)ccc12)C(=O)O [Compound 27, 6-bromoindolyl-3-glyoxyl-L-alanine]	1.9%	1.3%	109.6%	94.4%	–
CC(C)[C@@H](NC(=O)C(=O)c1c[nH]c2ccc(Br)cc12)C(=O)O [Compound 54, 5-bromoindolyl-3-glyoxyl-D-valine]	1.3%	1.0%	105.4%	97.3%	–
O=C(N[C@H](Cc1ccc(O)cc1)C(=O)O)C(=O)c1c[nH]c2ccc(Br)cc12 [Compound 50, 5-bromoindolyl-3-glyoxyl-D-tyrosine]	6.1%	0.9%	95.3%	89.2%	% Inhibition @ 60 µM, 3D7 (P. falciparum 3D7): 99.0%; % Inhibition @ 60 µM, Dd2 (P. falciparum Dd2): 97.5%; % Inhibition @ 60 µM, HEK293 (HEK293 cells): 20.5%
O=C(N[C@@H](Cc1c[nH]c2ccccc12)C(=O)O)C(=O)c1c[nH]c2cc(Br)ccc12 [Compound 47, 6-bromoindolyl-3-glyoxyl-L-tryptophan]	24.4%	4.1%	89.5%	99.6%	% Inhibition @ 60 µM, 3D7 (P. falciparum 3D7): 14.0%; % Inhibition @ 60 µM, Dd2 (P. falciparum Dd2): 20.0%; % Inhibition @ 60 µM, HEK293 (HEK293 cells): 14.0%
O=C(N[C@@H](Cc1ccc(O)cc1)C(=O)O)C(=O)c1c[nH]c2ccc(Br)cc12 [Compound 49, 5-bromoindolyl-3-glyoxyl-L-tyrosine]	15.0%	1.9%	99.5%	82.9%	–
CC(C)[C@H](NC(=O)C(=O)c1c[nH]c2ccc(Br)cc12)C(=O)O [Compound 53, 5-bromoindolyl-3-glyoxyl-L-valine]	1.9%	1.3%	101.3%	91.6%	–
O=C(N[C@@H](CO)C(=O)O)C(=O)c1c[nH]c2ccc(Br)cc12 [Compound 43, 5-bromoindolyl-3-glyoxyl-L-serine]	105.5%	2.0%	101.4%	96.1%	% Inhibition @ 60 µM, 3D7 (P. falciparum 3D7): 1.0%; % Inhibition @ 60 µM, Dd2 (P. falciparum Dd2): 1.0%; % Inhibition @ 60 µM, HEK293 (HEK293 cells): 21.0%; IC50 (SARS-CoV-2 3CLpro; no DTT): 1.2 µM
N=C(N)NCCC[C@H](NC(=O)C(=O)c1c[nH]c2cc(Br)ccc12)C(=O)O [Compound 31, 6-bromoindolyl-3-glyoxyl-L-arginine]	4.3%	2.4%	99.3%	99.5%	–
N=C(N)NCCC[C@@H](NC(=O)C(=O)c1c[nH]c2ccc(Br)cc12)C(=O)O [Compound 30, 5-bromoindolyl-3-glyoxyl-D-arginine]	10.1%	1.0%	96.2%	86.3%	–
